From ChEMBL document CHEMBL4507324 (2021)

What was measured:
Settings in all cases: Compound concentration 100.0 nM
[1] = biological target: Dual specificity tyrosine-phosphorylation-regulated kinase 1B (Homo sapiens) (UniProt Q9Y463)
[2] = biological target: Serine/threonine-protein kinase 38-like (Homo sapiens, UniProt Q9Y2H1)
[3] = tested on: Tyrosine-protein kinase ABL1 (Homo sapiens), P00519 [F317I]
[4] = biological target: Wee1-like protein kinase (Homo sapiens) (UniProt P30291)
[5] = biological target: Ribosomal protein S6 kinase alpha-5 (Homo sapiens) (UniProt O75582)
[6] = biological target: Death-associated protein kinase 1 (Homo sapiens) (UniProt P53355)
[7] = biological target: Platelet-derived growth factor receptor alpha (Homo sapiens) (UniProt P16234)
[8] = biological target: Mitogen-activated protein kinase 6 (Homo sapiens) (UniProt Q16659)
[9] = biological target: SRSF protein kinase 2 (Homo sapiens) (UniProt P78362)
[10] = tested on: Epidermal growth factor receptor (Homo sapiens), P00533 [UNDEFINED MUTATION]
[11] = biological target: Serine/threonine-protein kinase Chk2 (Homo sapiens, UniProt O96017)
[12] = biological target: STE20-like serine/threonine-protein kinase (Homo sapiens) (UniProt Q9H2G2)
[13] = biological target: Serine/threonine-protein kinase TAO1 (Homo sapiens) (UniProt Q7L7X3)
[14] = biological target: SRSF protein kinase 1 (Homo sapiens) (UniProt Q96SB4)
[15] = biological target: Mitogen-activated protein kinase kinase kinase 15 (Homo sapiens) (UniProt Q6ZN16)
[16] = biological target: Serine/threonine-protein kinase PAK 5 (Homo sapiens) (UniProt Q9P286)
[17] = biological target: 1-phosphatidylinositol 3-phosphate 5-kinase (Homo sapiens) (UniProt Q9Y2I7)
[18] = biological target: Mitogen-activated protein kinase 7 (Homo sapiens) (UniProt Q13164)
[19] = biological target: Serine/threonine-protein kinase TBK1 (Homo sapiens) (UniProt Q9UHD2)
[20] = tested on: Epidermal growth factor receptor (Homo sapiens), P00533 [UNDEFINED MUTATION]; remark: listed apart in the source
[21] = tested on: Mast/stem cell growth factor receptor Kit (Homo sapiens), P10721 [D816V]
[22] = biological target: Inhibitor of nuclear factor kappa-B kinase subunit beta (Homo sapiens) (UniProt O14920)
[23] = tested on: Epidermal growth factor receptor (Homo sapiens), P00533 [L861Q]
[24] = biological target: Casein kinase I isoform gamma-2 (Homo sapiens) (UniProt P78368)
[25] = biological target: Bone morphogenetic protein receptor type-1A (Homo sapiens) (UniProt P36894)
[26] = biological target: Interferon-induced, double-stranded RNA-activated protein kinase (Homo sapiens) (UniProt P19525)
[27] = biological target: Wee1-like protein kinase 2 (Homo sapiens) (UniProt P0C1S8)
[28] = biological target: Epidermal growth factor receptor (Homo sapiens) (UniProt P00533)
[29] = biological target: Macrophage colony-stimulating factor 1 receptor (Homo sapiens) (UniProt P07333)
[30] = biological target: Cyclin-G-associated kinase (Homo sapiens) (UniProt O14976)
[31] = tested on: Epidermal growth factor receptor (Homo sapiens), P00533 [G719S]
[32] = biological target: Serine/threonine-protein kinase ULK1 (Homo sapiens) (UniProt O75385)
[33] = biological target: G protein-coupled receptor kinase 4 (Homo sapiens) (UniProt P32298)
[34] = biological target: Ribosomal protein S6 kinase alpha-4 (Homo sapiens) (UniProt O75676)
[35] = tested on: Tyrosine-protein kinase ABL1 (Homo sapiens), P00519 [T315I]
[36] = biological target: Mitogen-activated protein kinase kinase kinase 1 (Homo sapiens) (UniProt Q13233)
[37] = biological target: Calcium/calmodulin-dependent protein kinase type II subunit gamma (Homo sapiens) (UniProt Q13555)
[38] = biological target: Tyrosine-protein kinase HCK (Homo sapiens) (UniProt P08631)
[39] = biological target: NT-3 growth factor receptor (Homo sapiens) (UniProt Q16288)
[40] = biological target: Rho-associated protein kinase 1 (Homo sapiens) (UniProt Q13464)
[41] = biological target: Cyclin-dependent kinase-like 1 (Homo sapiens) (UniProt Q00532)
[42] = biological target: Phosphatidylinositol 4,5-bisphosphate 3-kinase catalytic subunit beta isoform (Homo sapiens) (UniProt P42338)
[43] = tested on: Tyrosine-protein kinase ABL1 (Homo sapiens), P00519 [F317L]
[44] = biological target: RAC-gamma serine/threonine-protein kinase (Homo sapiens) (UniProt Q9Y243)
[45] = biological target: Tyrosine-protein kinase ABL1 (Homo sapiens) (UniProt P00519)

Measured: residual activity

Chain of Wee1-like protein kinase (Homo sapiens) (P30291 whole entry, looked up): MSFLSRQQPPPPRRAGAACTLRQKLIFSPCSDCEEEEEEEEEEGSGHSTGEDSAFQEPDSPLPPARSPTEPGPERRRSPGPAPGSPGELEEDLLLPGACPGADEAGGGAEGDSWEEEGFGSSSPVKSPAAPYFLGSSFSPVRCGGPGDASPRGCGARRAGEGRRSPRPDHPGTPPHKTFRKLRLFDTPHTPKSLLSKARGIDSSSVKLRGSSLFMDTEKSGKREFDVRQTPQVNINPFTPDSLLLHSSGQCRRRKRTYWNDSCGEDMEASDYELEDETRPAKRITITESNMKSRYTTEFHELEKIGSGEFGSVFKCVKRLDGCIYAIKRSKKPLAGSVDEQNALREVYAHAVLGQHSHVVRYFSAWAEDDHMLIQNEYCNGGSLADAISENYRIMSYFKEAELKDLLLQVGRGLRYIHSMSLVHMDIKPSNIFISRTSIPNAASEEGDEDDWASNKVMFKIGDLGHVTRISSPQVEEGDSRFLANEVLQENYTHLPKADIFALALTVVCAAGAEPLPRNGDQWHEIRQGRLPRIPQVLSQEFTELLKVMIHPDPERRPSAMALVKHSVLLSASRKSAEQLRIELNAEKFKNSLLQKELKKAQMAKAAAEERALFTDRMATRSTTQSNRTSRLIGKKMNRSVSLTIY
Chain of Ribosomal protein S6 kinase alpha-4 (Homo sapiens) (O75676 whole entry, looked up): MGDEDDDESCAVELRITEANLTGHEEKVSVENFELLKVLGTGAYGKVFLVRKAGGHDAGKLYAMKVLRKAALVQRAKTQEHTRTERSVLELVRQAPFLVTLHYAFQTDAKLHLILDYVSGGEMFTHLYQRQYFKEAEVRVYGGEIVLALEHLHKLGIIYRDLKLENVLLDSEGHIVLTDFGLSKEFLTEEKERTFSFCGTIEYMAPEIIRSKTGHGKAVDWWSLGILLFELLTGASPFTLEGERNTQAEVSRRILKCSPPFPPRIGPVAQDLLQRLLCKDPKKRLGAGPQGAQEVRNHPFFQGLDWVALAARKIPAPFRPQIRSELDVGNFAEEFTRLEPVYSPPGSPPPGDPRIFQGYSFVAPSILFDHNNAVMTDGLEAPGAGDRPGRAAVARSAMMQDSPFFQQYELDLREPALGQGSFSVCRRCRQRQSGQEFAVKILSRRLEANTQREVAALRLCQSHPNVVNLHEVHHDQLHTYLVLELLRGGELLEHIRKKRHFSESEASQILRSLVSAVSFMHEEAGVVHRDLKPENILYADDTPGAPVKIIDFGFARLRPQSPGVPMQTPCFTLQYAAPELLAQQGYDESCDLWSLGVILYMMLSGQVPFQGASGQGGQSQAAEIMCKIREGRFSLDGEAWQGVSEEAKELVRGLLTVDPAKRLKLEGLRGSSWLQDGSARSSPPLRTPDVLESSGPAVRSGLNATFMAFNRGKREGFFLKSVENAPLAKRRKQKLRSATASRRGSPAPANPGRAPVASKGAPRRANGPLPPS
Chain of Serine/threonine-protein kinase 38-like (Q9Y2H1 2-464 limits assumed): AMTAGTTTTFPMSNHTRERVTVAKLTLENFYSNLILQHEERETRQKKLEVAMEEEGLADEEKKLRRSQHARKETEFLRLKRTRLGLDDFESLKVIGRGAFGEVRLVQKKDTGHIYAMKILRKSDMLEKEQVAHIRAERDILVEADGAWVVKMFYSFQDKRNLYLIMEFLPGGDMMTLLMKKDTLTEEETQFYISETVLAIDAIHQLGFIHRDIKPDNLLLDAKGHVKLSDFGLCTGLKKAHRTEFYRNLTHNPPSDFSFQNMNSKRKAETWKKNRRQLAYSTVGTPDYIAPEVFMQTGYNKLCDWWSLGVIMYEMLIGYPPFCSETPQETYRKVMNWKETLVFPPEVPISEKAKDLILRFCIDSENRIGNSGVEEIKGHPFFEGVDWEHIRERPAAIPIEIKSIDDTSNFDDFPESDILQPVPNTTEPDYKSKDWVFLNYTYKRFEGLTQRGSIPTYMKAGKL
Chain of G protein-coupled receptor kinase 4 (Homo sapiens) (P32298 whole entry, looked up): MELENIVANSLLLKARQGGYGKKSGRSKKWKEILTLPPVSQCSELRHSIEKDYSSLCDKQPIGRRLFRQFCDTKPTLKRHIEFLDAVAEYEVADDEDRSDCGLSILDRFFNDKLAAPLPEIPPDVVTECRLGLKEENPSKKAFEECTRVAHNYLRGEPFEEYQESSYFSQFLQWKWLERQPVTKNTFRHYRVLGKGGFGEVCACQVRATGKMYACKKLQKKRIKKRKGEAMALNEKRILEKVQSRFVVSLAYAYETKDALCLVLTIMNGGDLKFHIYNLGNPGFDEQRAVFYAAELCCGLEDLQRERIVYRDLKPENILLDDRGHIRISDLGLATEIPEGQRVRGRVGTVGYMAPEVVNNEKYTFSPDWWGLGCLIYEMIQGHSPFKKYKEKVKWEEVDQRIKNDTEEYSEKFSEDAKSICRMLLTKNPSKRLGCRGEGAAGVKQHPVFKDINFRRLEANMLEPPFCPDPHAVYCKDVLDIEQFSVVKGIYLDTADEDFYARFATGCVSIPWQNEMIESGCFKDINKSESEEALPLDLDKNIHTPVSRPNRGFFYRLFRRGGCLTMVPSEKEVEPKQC
Chain of Ribosomal protein S6 kinase alpha-5 (Homo sapiens) (O75582 whole entry, looked up): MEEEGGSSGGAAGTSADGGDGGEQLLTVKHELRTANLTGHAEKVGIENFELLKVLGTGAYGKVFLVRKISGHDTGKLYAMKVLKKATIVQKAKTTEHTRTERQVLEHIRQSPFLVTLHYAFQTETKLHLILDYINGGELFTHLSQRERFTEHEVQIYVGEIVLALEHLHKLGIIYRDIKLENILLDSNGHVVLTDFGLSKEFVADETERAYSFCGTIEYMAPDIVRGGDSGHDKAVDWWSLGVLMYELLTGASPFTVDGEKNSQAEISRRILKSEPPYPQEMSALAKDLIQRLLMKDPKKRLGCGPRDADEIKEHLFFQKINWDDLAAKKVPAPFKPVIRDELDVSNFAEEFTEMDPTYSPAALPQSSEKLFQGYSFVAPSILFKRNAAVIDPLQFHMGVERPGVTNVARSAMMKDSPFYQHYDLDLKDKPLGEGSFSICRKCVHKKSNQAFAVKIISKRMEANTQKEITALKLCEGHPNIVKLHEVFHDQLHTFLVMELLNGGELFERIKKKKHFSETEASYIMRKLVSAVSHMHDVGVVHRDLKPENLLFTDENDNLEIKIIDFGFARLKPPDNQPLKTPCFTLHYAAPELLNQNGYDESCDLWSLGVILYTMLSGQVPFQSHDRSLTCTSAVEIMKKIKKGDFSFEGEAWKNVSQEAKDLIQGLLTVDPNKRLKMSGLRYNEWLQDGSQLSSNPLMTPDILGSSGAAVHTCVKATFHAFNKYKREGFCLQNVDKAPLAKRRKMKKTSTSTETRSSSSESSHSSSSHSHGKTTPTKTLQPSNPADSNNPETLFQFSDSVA
Chain of Serine/threonine-protein kinase Chk2 (O96017 whole entry): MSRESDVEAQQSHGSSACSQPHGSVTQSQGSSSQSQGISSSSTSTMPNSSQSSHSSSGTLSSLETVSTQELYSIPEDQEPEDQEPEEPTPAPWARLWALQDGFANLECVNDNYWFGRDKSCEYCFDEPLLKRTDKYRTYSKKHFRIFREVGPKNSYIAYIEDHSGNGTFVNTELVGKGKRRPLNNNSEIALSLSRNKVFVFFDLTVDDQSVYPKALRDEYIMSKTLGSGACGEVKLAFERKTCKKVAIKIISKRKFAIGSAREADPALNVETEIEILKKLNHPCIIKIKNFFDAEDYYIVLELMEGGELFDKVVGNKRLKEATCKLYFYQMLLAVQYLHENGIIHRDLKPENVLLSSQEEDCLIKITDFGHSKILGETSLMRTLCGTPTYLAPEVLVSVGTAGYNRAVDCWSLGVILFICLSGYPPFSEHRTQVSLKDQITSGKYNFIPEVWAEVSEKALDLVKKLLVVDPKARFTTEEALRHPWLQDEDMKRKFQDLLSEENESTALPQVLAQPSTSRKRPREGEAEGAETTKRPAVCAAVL
Chain of STE20-like serine/threonine-protein kinase (Homo sapiens) (Q9H2G2 whole entry, looked up): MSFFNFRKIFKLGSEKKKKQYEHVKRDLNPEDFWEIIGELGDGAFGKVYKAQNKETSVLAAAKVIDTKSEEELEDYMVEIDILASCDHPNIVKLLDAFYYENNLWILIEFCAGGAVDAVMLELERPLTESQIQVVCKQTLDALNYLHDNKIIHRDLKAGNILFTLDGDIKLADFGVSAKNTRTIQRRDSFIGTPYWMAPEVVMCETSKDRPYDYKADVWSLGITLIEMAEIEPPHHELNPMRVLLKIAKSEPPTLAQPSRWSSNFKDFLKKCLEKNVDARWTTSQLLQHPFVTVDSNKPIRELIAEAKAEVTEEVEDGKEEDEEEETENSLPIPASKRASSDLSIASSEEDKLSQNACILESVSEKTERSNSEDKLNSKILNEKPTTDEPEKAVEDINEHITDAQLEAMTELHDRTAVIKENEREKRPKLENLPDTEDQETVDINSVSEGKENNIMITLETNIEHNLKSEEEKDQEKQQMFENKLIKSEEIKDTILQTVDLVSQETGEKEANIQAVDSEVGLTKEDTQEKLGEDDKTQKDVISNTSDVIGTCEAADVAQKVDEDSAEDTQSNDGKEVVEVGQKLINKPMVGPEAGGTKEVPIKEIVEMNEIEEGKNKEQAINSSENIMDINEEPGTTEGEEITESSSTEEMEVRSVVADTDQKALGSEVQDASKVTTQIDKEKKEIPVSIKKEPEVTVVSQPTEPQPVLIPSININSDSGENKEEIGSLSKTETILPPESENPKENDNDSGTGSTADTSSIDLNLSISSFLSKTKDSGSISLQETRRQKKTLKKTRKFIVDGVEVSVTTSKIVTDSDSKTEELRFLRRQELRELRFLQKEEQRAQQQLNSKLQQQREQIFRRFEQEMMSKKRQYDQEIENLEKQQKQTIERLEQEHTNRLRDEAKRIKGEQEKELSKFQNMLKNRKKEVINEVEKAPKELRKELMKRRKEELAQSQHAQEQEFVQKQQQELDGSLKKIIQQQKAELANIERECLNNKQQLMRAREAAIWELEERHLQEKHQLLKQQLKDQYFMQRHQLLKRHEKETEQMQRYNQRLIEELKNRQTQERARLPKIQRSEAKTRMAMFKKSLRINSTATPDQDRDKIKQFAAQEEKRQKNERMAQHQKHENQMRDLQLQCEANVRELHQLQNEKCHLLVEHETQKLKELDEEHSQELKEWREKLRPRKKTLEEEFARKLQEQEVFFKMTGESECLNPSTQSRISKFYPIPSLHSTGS

CS(=O)(=O)N1CCCC(NC(=O)[C@H](CCC2CCCCC2)NC(=O)c2ccc(CNc3ncnc4c3nnn4-c3ccccc3)cc2)C1 (stereo not given in full) [SR-301]
active: [2] 24% | [9] 34%
inactive: [1] 100% | [3] 95% | [4] 72% | [5] 81% | [6] 92% | [7] 91% | [8] 94% | [10] 94% | [11] 100% | [12] 100% | [13] 100% | [14] 78% | [15] 74% | [16] 100% | [17] 61% | [18] 94% | [19] 88% | [20] 93% | [21] 100% | [22] 100% | [23] 100% | [24] 82% | [25] 90% | [26] 55% | [27] 100% | [28] 100% | [29] 100% | [30] 95% | [31] 72% | [32] 100% | [33] 100% | [34] 86% | [35] 100% | [36] 81% | [37] 94% | [38] 100% | [39] 86% | [40] 93% | [41] 71% | [42] 81% | [43] 91% | [44] 86% | [45] 82%

CS(=O)(=O)N1CCCC(NC(=O)[C@H](CCC2CCCCC2)NC(=O)c2ccc(CNC(=O)c3cnc4ccccn34)cc2)C1 (stereo not given in full) [SR-302]
inactive: [1] 100% | [3] 85% | [4] 100% | [5] 90% | [6] 88% | [7] 99% | [8] 96% | [9] 83% | [10] 100% | [12] 99% | [13] 88% | [14] 74% | [15] 100% | [16] 97% | [17] 100% | [18] 94% | [19] 75% | [20] 90% | [21] 100% | [22] 100% | [23] 100% | [24] 70% | [25] 94% | [27] 97% | [28] 76% | [29] 100% | [30] 96% | [31] 100% | [32] 83% | [33] 100% | [34] 97% | [35] 100% | [36] 100% | [37] 86% | [38] 100% | [39] 88% | [40] 100% | [41] 91% | [42] 96% | [43] 100% | [44] 100% | [45] 61%
active: [2] 40% | [11] 37% | [26] 47%
